This is an account of results in publication PMC12154284, “FYCO1 Peptide Analogs: Design and Characterization of Autophagy Inhibitors as Co-Adjuvants in Taxane Chemotherapy of Prostate Cancer” (International Journal of Molecular Sciences, 2025).

For one assay, the target named is LC3B. The conditions noted are these: eicosapeptide, ref [30]; cited from earlier work. The text has this:
This small protein sequence consists of four conserved residues that can be succinctly represented as a sequence of “X0–X1–X2–X3”, where X0 represents an aromatic residue (Trp/Phe/Tyr), X1 and X2 can denote any amino acids (often acidic or hydrophobic residues), and X3 signifies a large hydrophobic residue such as Leu, Val, or Ile. Consequently, the LIR domain can be considered a promising starting poi ... || To measure the dissociation constants (Kd) of the peptides on human recombinant His-tagged LC3B protein, MST experiments were carried out on a Monolith NT.115^Pico instrument (see the Materials and Methods section for details). […] The electrostatic interactions between the new peptides and LC3B’s positively charged surface—defined by the residues K49, K51, R69, and R70—correlated with low predicted ΔG* values, explaining their improved ...

The test system of the next assay is DU145 cells. Nature of the assay: MTT cell viability, DU145 (ATG5-deficient). The format is cell-based, Human. The conditions noted are these: 72 h, dose printed 5 mM, n = 6. As for the experimental part:
(§1) The study was conducted on several cancer cells. Human CRPC cell lines (PC-3 and DU145) were purchased from the American Type Culture Collection (ATCC, Manassas, VA, USA) and cultured at 37 °C and 5% CO2 in RPMI 1640 (EuroClone, Milano, Italy) supplemented, respectively, with 7.5% (PC3) and 5% (DU145) FBS (Gibco, ThermoFisher Scientific, Waltham, MA, USA), 1% L-glutamine, and antibiotics (100 IU/mL penicillin G). […]
(§2) For viability studies, MTS (Cell Titer 96 Aqueous One Solution Cell Proliferation Assay) (Promega, Nacka, Sweden) and 3-(4,5-dimethylthiazole-2-yl)-2,5-diphenyltetrazolium bromide (MTT) (Sigma-Aldrich, St. Louis, MO, USA) assays were conducted. […] The absorbance (λ = 550 nm) was measured by an EnSpire Multimode Plate reader (Perkin Elmer, Milano, Italy). The absorbance value of untreated cells was set at 100% (control), and the viability of treated cells was expressed as a percentage of the control. […] After 72 h, cell viability was assessed using an MTS assay according to the manufacturer’s protocol using a 96-well-plate spectrophotometer (Varioskan Flash Multimode Reader; ThermoFisher Scientific, Waltham, MA, USA) set at λ = 490 nm. The absorbance value of untreated cells was set at 100% (control), and the viability of treated cells was expressed as a percentage of the control. […]

In the next assay the test system is MCF-7 cells. Nature of the assay: MTS cell viability, MCF-7. The assay is classed as cell-based. The conditions noted are these: 72 h, 0.0025 to 5 μM, n = 4. The procedure: as §1, §2
For another assay, the system named is PC-3 cells. Briefly: MTT cell viability, PC-3. The format is cell-based, Human. As for the experimental part:
The study was conducted on several cancer cells. Human CRPC cell lines (PC-3 and DU145) were purchased from the American Type Culture Collection (ATCC, Manassas, VA, USA) and cultured at 37 °C and 5% CO2 in RPMI 1640 (EuroClone, Milano, Italy) supplemented, respectively, with 7.5% (PC3) and 5% (DU145) FBS (Gibco, ThermoFisher Scientific, Waltham, MA, USA), 1% L-glutamine, and antibiotics (100 IU/mL penicillin G). Luminal A MCF-7 breast cancer cells (ATCC, Manassas, VA, USA) were cultured in Dulbecco’s Modified Eagle Medium/Nutrient Mixture F-12 (DMEM-F12, Gibco Laboratories, Waltham, MA, USA) supplemented with 10% fetal bovine serum (FBS, Gibco Laboratories, Waltham, MA, USA), 1% penicillin/streptomycin (Gibco Laboratories), and 1% L-glutamine (Gibco Laboratories). A549 human lung cancer cell line (ATCC, Manassas, VA, USA) were cultured in Dulbecco’s modified eagle medium (DMEM, Lonza, Switzerland) supplemented with 10% FBS (Gibco Laboratories, Waltham, MA, USA), 1% of 100 u/mL penicillin/streptomycin (Gibco Laboratories), and 1% L-glutamine (Gibco Laboratories). […]
as §2

Assay [1] concerns LC3-I and LC3-II in PC-3 cells. Briefly: Western blot of LC3-I and LC3-II in PC-3 cells. The assay is classed as cell-based, Human. As for the experimental part:
(§3) PC-3 cells were plated at 2 × 10^5 cells/dish in 6 cm dishes and treated with different compounds. At the end of the treatments the cells were lysed in RIPA buffer. Protein extracts (15–35 μg) were resuspended in presence of reducing Sample buffer (Bio-Rad Laboratories, Segrate, Milano, Italy), heated at 95 °C for 5 min and separated by SDS-PAGE WB. Proteins were transferred onto nitrocellulose or PVDF membranes. After blocking with nonfat dried milk, membranes were incubated with anti-ATG5 (1:1000) (#12994) Cell Signaling Technology Inc. (Boston, MA, USA), anti-LC3 (1:1000) (L8918) (Sigma-Aldrich), anti-SQSTM1/p62 (1:2000) (PA5-20839) (Thermo Fisher Scientific, Waltham, MA, USA), anti-cleaved-caspase-3 (1:500) (#9664) Cell Signaling Technology Inc. primary antibodies overnight at 4 °C. Horseradish peroxidase (HRP) conjugated secondary anti-rabbit or anti-mouse antibodies were used for 1 h at room temperature and the membranes were processed using chemiluminescence kit Cyanagen Ultra (Cyanagen, Bologna, Italy). In each WB experiment alpha-tubulin expression (T6199) (Sigma-Aldrich, St. Louis, MO, USA) was evaluated as a protein control. Relative optical density of the bands was assessed by ImageJ software (version 1.54g). Uncropped WB images are available in the Supporting Information.
A general note: In western blotting, separated proteins are transferred to a membrane and probed.

The target of assay [2] is human recombinant His-tagged LC3B (Homo sapiens, UniProt Q9GZQ8). Nature of the assay: MST binding to human recombinant His-tagged LC3B. The conditions noted are these: Table S1.
Protocol: A constant concentration of red-labelled LC3B (10 nM) was incubated with sixteen 1:1 serial dilutions of peptides (concentration details are consultable in the Supplementary Materials, Table S1). PBS-T (phosphate-buffered saline + 0.05% Tween™ 20), from NanoTemper Technologies, with 2.5% dimethyl sulfoxide (DMSO) (Product No. D8418; Sigma-Aldrich, Saint Louis, MO, USA) was used as buffer. After 15 min of incubation at room temperature, samples were loaded into standard capillaries (Product No. MO-K022; NanoTemper Technologies) and analyzed at 25 °C with 20% excitation power and medium MST power (40%) using the “Binding Affinity” mode available in the MO.Control v1.6 software (NanoTemper Technologies GmbH, München, Germany). Prior to Kd determination, peptide auto-fluorescence was assessed. Data analysis was performed using MO.Affinity Analysis v2.3 software (NanoTemper Technologies GmbH, München, Germany) applying the Kd model for fitting the binding curve, while the figures were generated using GraphPad Prism v8.0.2 software (GraphPad, Boston, MA, USA).
Two independent experiments were performed to determine the Kd value.
RA = Response Amplitude; SNR = Signal -to-Noise Ratio.
For another assay, the system named is p62 in PC-3 cells. Nature of the assay: Western blot of p62 (SQSTM1) in PC-3 cells. The format is cell-based, Human. The settings on record: 72 h and 96 h. As for the experimental part: as §3
For assay [3], the system named is cleaved caspase-3 in PC-3 cells. Briefly: Western blot of cleaved caspase-3 in PC-3 cells. The settings on record: AM10, Doc (25 nM) or both, 48 h. The assay is classed as cell-based, Human. As for the experimental part: as §3
The test system of a further assay is A375 cells. Nature of the assay: MTS cell viability, A375. The format is cell-based. The conditions noted are these: 72 h, 0.0025 to 5 μM, n = 4. As for the experimental part:
as §1, §2

The next assay concerns autophagy in PC-3 cells. Nature of the assay: Autophagosome formation and autophagic flux in PC-3 cells (LC3-I, LC3-II, p62). The assay is classed as cell-based, Human. The conditions noted are these: as evidenced by LC3-I. The procedure:
as §3

The next assay has as its system A549 cells. Briefly: MTS cell viability, A549. The assay is classed as cell-based, human. The conditions noted are these: 72 h, 0.0025 to 5 μM, n = 4. The procedure:
as §1, §2

A word on the Kd: it is the equilibrium constant for the complex coming apart. Turning to RDDAV2DIITDEEαCQIQEW [Comb1], at LC3B, the Kd is 120 nM.
Turning to `CC[C@H](C)[C@H](NC(=O)[C@H](CC(=O)O)NC(=O)[C@H](Cc1ccc(I)cc1)NC(=O)[C@@H](NC(=O)[C@H](C)NC(=O)[C@@H](N)CC(=O)O)C(C)C)C(=O)N[C@@H](CCSC)C(=O)N[C@H](C(=O)N[C@H]1CSSC[C@@H](C(=O)O)NC(=O)[C@H](CCC(=O)O)NC(=O)[C@H](CCC(=O)O)NC1=O)[C@@H](C)O` [AM10], in the assay with DU145 cells, the DU145 cell viability entry is recorded as “no effect on cell viability”. Besides, the MCF-7 cell viability entry in the assay with MCF-7 cells was “concentration-dependent reduction in cell viability”. The PC-3 cell viability entry with PC-3 cells (MTT, 72 h, 0.0025-5 μM (method), n = 6) is “all peptides reduce cell viability in a significant dose-dependent manner starting from the 0.025 mM dose up to the 5 mM dose”. For the same molecule, the “PC-3 cell viability (Conclusions)” value in the assay with PC-3 cells (summary statement) is “diminished cell viability”. Besides, in assay [1] (5 µM, 48 h), the “LC3-I and LC3-II expression, 48 h” value is “significantly reduced the level of LC3-I and LC3-II”. The “LC3-I and LC3-II expression, 72 h” value in [1] (72 h) is “retains the ability to inhibit both LC3-I and LC3-II”. The “LC3-I / LC3-II expression, Doc/AM10 experiment” value in assay [1] (AM10, Doc (25 nM) or both, 48 h) is “reduces the expression of both LC3-I and LC3-II”. The “Response Amplitude (RA)” value in assay [2] worked out at 2.8. Also, the p62 expression result in the assay with p62 in PC-3 cells is “the expression of p62 increases significantly”. Further, in assay [3], the “cleaved caspase-3 / apoptosis” value is listed as “does not induce caspase-3 activation”. Further, the A375 cell viability result with A375 cells is given as “concentration-dependent reduction in cell viability”. In the assay with autophagy in PC-3 cells, the “autophagosome formation and autophagic flux (Conclusions)” value was “inhibited autophagosome formation and autophagic flux”. Moreover, the A549 cell viability result with A549 cells is recorded as “concentration-dependent reduction in cell viability”.
